Reference: patent publication US20070167478A1, “Biomarkers for sensitivity of proliferative diseases to mtor inhibitors” (priority 2003, published 2007)

Columns and labels:
Assay type in all cases: cell-based
BT549 = assay: Antiproliferative assay, methylene blue staining, BT549; conditions: BT549 human tumor cell line, 4 days incubation
Procedure: (§1) Human tumor cell lines, e.g. the 40-O-(2-hydroxyethyl) rapamycin-sensitive MCF7, BT549 or LNCap lines (IC50 in sub nM range) versus the comparative 40-O-(2-hydroxyethyl) rapamycin-resistant PC3M line (IC50 in the >100 nM range), as well as cell lines with moderate rapamcyin-sensitivity (IC50 in the 1 nM-100 nM range) such as DU145, HCC1937 and MDA-MB231, are added to 96-well plates (500 to 5000 cells/well in 100 μl medium) and incubated for 24 hr. Subsequently, a dilution series of an mTOR inhibitor, e.g. a compound of formula A, e.g. 40-O-(2-hydroxyethyl) rapamycin is made in separate wells and the dilutions are added to the wells. The cells are then re-incubated for 4 days. Methylene blue staining is performed on day 5 and the amount of bound dye (proportional to the number of surviving cells that bind the dye) determined. IC50s are subsequently determined using Softmax 1.2.0 software.

MCF7 = assay: Antiproliferative assay, methylene blue staining, MCF7; conditions: MCF7 human tumor cell line, 4 days incubation
Procedure: as §1

LNCap = assay: Antiproliferative assay, methylene blue staining, LNCap; conditions: LNCap human tumor cell line, 4 days incubation
Procedure: as §1

PC3M = assay: Antiproliferative assay, methylene blue staining, PC3M; conditions: PC3M human tumor cell line, 4 days incubation
Procedure: as §1

CO[C@H]1C[C@@H]2CC[C@@H](C)[C@@](O)(O2)C(=O)C(=O)N2CCCC[C@H]2C(=O)O[C@H]([C@H](C)C[C@@H]2CC[C@@H](OCCO)[C@H](OC)C2)CC(=O)[C@H](C)/C=C(\C)[C@@H](O)[C@@H](OC)C(=O)[C@H](C)C[C@H](C)/C=C/C=C/C=C/1C [40-O-(2-hydroxyethyl) rapamycin]
IC50 (BT549): sub nM | IC50 (MCF7): sub nM | IC50 (LNCap): sub nM | IC50 (PC3M): > 100 nM
